From patent US20260070917A1, “CYCLIN DEPENDENT KINASE DEGRADERS AND METHODS OF USE THEREOF” (Differentiated Therapeutics Inc, priority 2023, published 2026)

Assays:
Format in all cases: cell-based
[1] = target: T1, CDK2 (Homo sapiens, UniProt P24941); assay: HiBit Assay Protocol for CDK2 (HIBIT protein quantification, degradation); conditions: HEK293-CDK2-Hibit cells, compound treatment for 6 hours; for DC50: ABS DC50
T1 construct: host or cells: HEK293-CDK2-Hibit
Procedure, shortened: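 DC50 comes from a fitted curve of remaining CDK2-HiBiT luminescence, referenced to DMSO-treated cells and medium-only wells. HEK293-CDK2-HiBiT cells, plated the previous night, received compounds in a 10-point, 3-fold series for 6 h before lysis with LgBiT-containing Nano-Glo HiBiT reagent.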

[2] = target: T2, CCNE1 (Homo sapiens, UniProt P24864); assay: HiBit Assay Protocol for CCNE1 (HIBIT protein quantification, degradation); conditions: HEK293-CCNE1-Hibit cells, compound treatment for 6 hours
T2 construct: host or cells: HEK293-CCNE1-Hibit
Procedure, shortened: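 Degradation readout: lytic Nano-Glo HiBiT luminescence after 6 h exposure of HEK293-CCNE1-HiBiT cells to 10-point, 3-fold serial dilutions. Signal was scaled between medium-only and DMSO-treated wells, and DC50 came from curve fits.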

[3] = target: T3, CDK9 (Homo sapiens, UniProt P50750); assay: HiBit Assay Protocol for CDK9 (HIBIT protein quantification, degradation); conditions: 6 h, HEK293-CDK9-Hibit cells, compound treatment for 6 hours; read-out: CDK9 HIBIT Protein Quantification Maximum
T3 construct: host or cells: HEK293-CDK9-Hibit
Procedure, shortened: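 Degradation read-out: luminescence after lytic HiBiT/LgBiT detection in HEK293-CDK9-HiBiT cells exposed 6 h to 10-point, 3-fold compound dilutions. Signal scaled between 0.1% DMSO-treated cells and medium alone; DC50 fitted from the curve.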

T3 sequence (P50750 whole entry): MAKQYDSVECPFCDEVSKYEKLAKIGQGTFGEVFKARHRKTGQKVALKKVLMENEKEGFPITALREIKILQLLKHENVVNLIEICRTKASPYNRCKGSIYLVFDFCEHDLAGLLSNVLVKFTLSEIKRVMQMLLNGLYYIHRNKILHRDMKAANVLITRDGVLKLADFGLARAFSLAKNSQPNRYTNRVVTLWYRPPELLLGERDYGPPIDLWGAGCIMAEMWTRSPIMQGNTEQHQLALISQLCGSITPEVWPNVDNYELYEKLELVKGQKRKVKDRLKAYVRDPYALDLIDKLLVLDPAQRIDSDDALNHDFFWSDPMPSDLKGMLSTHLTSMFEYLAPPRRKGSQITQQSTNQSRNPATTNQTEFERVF
T2 sequence (P24864 whole entry): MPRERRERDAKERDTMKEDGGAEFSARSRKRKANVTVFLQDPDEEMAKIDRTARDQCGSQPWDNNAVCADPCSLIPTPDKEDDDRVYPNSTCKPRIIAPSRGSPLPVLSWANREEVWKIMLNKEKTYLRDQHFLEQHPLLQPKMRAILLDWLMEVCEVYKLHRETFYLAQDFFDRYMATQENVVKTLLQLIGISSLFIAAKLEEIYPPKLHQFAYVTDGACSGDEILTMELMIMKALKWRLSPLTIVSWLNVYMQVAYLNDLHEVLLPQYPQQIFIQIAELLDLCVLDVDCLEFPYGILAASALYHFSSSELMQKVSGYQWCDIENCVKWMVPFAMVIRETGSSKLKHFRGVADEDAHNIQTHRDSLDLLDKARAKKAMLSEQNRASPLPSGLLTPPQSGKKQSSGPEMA

SMILES | CDK2 HIBIT Protein Quantification Maximum [1] | DC50 [1] | CCNE1 HIBIT Protein Quantification Maximum [2] | Dmax [3]
CC1CCCC1N1C(=O)C2(CC2)c2cnc(NC3CCN(S(=O)(=O)N4CC(N(C)C(=O)CCCc5ccc6c(c5)n(C)c(=O)n6C5CCC(=O)NC5=O)C4)CC3)nc21 (centres unmarked) [Compound 61] | 60% | 3 nM | 29% | 23%
CC1CCCC1N1C(=O)C2(CC2)c2cnc(NC3CCN(S(=O)(=O)N4CCCC45CCN(C(=O)CCCc4ccc6c(c4)n(C)c(=O)n6C4CCC(=O)NC4=O)C5)CC3)nc21 (centres unmarked) [Compound 63] | 15% | – | 2% | 14%
CC1CCCC1N1C(=O)C2(CC2)c2cnc(NC3CCN(S(=O)(=O)N4CCC5(CCCN5C(=O)CCCc5ccc6c(c5)n(C)c(=O)n6C5CCC(=O)NC5=O)C4)CC3)nc21 (centres unmarked) [Compound 64] | 29% | – | 18% | 17%
CC1CCCC1N1C(=O)C2(CC2)c2cnc(NC3CCN(S(=O)(=O)N4CC5(CCCCN5C(=O)CCCc5ccc6c(c5)n(C)c(=O)n6C5CCC(=O)NC5=O)C4)CC3)nc21 (centres unmarked) [Compound 65] | 30% | – | 4% | 9%
CC1CCCC1N1C(=O)C2(CC2)c2cnc(NC3CCN(S(=O)(=O)N4CC5CN(C(=O)CCCc6ccc7c(c6)n(C)c(=O)n7C6CCC(=O)NC6=O)CC54)CC3)nc21 (centres unmarked) [Compound 70] | −3% | – | 6% | 15%
CC1CCCC1N1C(=O)C2(CC2)c2cnc(NC3CCN(S(=O)(=O)N4CC5CN(C(=O)CCCCCc6ccc7c(c6)n(C)c(=O)n7C6CCC(=O)NC6=O)CC54)CC3)nc21 (centres unmarked) [Compound 79] | 6% | – | 16% | 21%
CC1CCCC1N1C(=O)C2(CC2)c2cnc(NC3CCN(S(=O)(=O)N4CCCN(C(=O)CCCCCc5ccc6c(c5)n(C)c(=O)n6C5CCC(=O)NC5=O)CC4)CC3)nc21 (centres unmarked) [Compound 80] | 24% | – | 29% | 8%
CC1CCCC1N1C(=O)C2(CC2)c2cnc(NC3CCN(S(=O)(=O)C4CCN(C(=O)CCCCCc5ccc6c(c5)n(C)c(=O)n6C5CCC(=O)NC5=O)C4)CC3)nc21 (centres unmarked) [Compound 81] | 50% | 8 nM | 15% | 14%
CC1CCCC1N1C(=O)C2(CC2)c2cnc(NC3CCN(S(=O)(=O)C4CCCN(C(=O)CCCCCc5ccc6c(c5)n(C)c(=O)n6C5CCC(=O)NC5=O)C4)CC3)nc21 (centres unmarked) [Compound 82] | 26% | – | 43% | 11%
CC1CCCC1N1C(=O)C2(CC2)c2cnc(NC3CCN(S(=O)(=O)N4CC5(CCCN(C(=O)CCCCCCCCCc6ccc7c(c6)n(C)c(=O)n7C6CCC(=O)NC6=O)C5)C4)CC3)nc21 (centres unmarked) [Compound 87] | 44% | – | 11% | 13%

Continued, values first:

CDK2 HIBIT Protein Quantification Maximum [1] | DC50 [1] | CCNE1 HIBIT Protein Quantification Maximum [2] | Dmax [3] | SMILES
39% | – | 14% | 8% | CC1CCCC1N1C(=O)C2(CC2)c2cnc(NC3CCN(S(=O)(=O)N4CC5(CCCN(C(=O)CCCc6ccc7c(c6)n(C)c(=O)n7C6CCC(=O)NC6=O)C5)C4)CC3)nc21 (centres unmarked) [Compound 66]
38% | – | 9% | 6% | CC1CCCC1N1C(=O)C2(CC2)c2cnc(NC3CCN(S(=O)(=O)N4CC5(CCN(C(=O)CCCc6ccc7c(c6)n(C)c(=O)n7C6CCC(=O)NC6=O)CC5)C4)CC3)nc21 (centres unmarked) [Compound 68]
13% | – | 8% | 8% | CC1CCCC1N1C(=O)C2(CC2)c2cnc(NC3CCN(S(=O)(=O)N4CC5C4CCN5C(=O)CCCc4ccc5c(c4)n(C)c(=O)n5C4CCC(=O)NC4=O)CC3)nc21 (centres unmarked) [Compound 69]
25% | – | 8% | 42% | CC1CCCC1N1C(=O)C2(CC2)c2cnc(NC3CCN(S(=O)(=O)N4CCCN(C(=O)CCCc5ccc6c(c5)n(C)c(=O)n6C5CCC(=O)NC5=O)CC4)CC3)nc21 (centres unmarked) [Compound 72]
19% | – | 29% | 8% | CC1CCCC1N1C(=O)C2(CC2)c2cnc(NC3CCN(S(=O)(=O)N4CCCC45CCN(C(=O)CCCCCc4ccc6c(c4)n(C)c(=O)n6C4CCC(=O)NC4=O)C5)CC3)nc21 (centres unmarked) [Compound 74]
29% | – | 20% | 9% | CC1CCCC1N1C(=O)C2(CC2)c2cnc(NC3CCN(S(=O)(=O)N4CC5(CCCCN5C(=O)CCCCCc5ccc6c(c5)n(C)c(=O)n6C5CCC(=O)NC5=O)C4)CC3)nc21 (centres unmarked) [Compound 76]
46% | – | 25% | 40% | CC1CCCC1N1C(=O)C2(CC2)c2cnc(NC3CCN(S(=O)(=O)N4CCN(C(=O)CCCCCc5ccc6c(c5)n(C)c(=O)n6C5CCC(=O)NC5=O)CC4)CC3)nc21 (centres unmarked) [Compound 77]
29% | – | 17% | 23% | CC1CCCC1N1C(=O)C2(CC2)c2cnc(NC3CCN(S(=O)(=O)N4CC5C4CCN5C(=O)CCCCCc4ccc5c(c4)n(C)c(=O)n5C4CCC(=O)NC4=O)CC3)nc21 (centres unmarked) [Compound 78]
29% | – | 13% | 16% | CC1CCCC1N1C(=O)C2(CC2)c2cnc(NC3CCN(S(=O)(=O)N4CC5(CCN(C(=O)CCCCCCCc6ccc7c(c6)n(C)c(=O)n7C6CCC(=O)NC6=O)CC5)C4)CC3)nc21 (centres unmarked) [Compound 83]
53% | 21 nM | 47% | 30% | CC1CCCC1N1C(=O)C2(CC2)c2cnc(NC3CCN(S(=O)(=O)C4CCN(C(=O)CCCCCCCc5ccc6c(c5)n(C)c(=O)n6C5CCC(=O)NC5=O)C4)CC3)nc21 (centres unmarked) [Compound 84]
17% | – | 41% | 14% | CC1CCCC1N1C(=O)C2(CC2)c2cnc(NC3CCN(S(=O)(=O)C4CCCN(C(=O)CCCCCCCc5ccc6c(c5)n(C)c(=O)n6C5CCC(=O)NC5=O)C4)CC3)nc21 (centres unmarked) [Compound 85]
65% | 16 nM | 37% | 34% | CC1CCCC1N1C(=O)C2(CC2)c2cnc(NC3CCN(S(=O)(=O)N4CC(N(C)C(=O)CCCCCCCCCc5ccc6c(c5)n(C)c(=O)n6C5CCC(=O)NC5=O)C4)CC3)nc21 (centres unmarked) [Compound 86]
55% | 7 nM | 21% | 24% | CC1CCCC1N1C(=O)C2(CC2)c2cnc(NC3CCN(S(=O)(=O)N4CC5(CCN(C(=O)CCCCCCCCCc6ccc7c(c6)n(C)c(=O)n7C6CCC(=O)NC6=O)CC5)C4)CC3)nc21 (centres unmarked) [Compound 88]
50% | – | 25% | 35% | CC1CCCC1N1C(=O)C2(CC2)c2cnc(NC3CCN(S(=O)(=O)N4CCC5(CCN(C(=O)CCCCCCCCCc6ccc7c(c6)n(C)c(=O)n7C6CCC(=O)NC6=O)C5)C4)CC3)nc21 (centres unmarked) [Compound 89]
